Key:
[1] = biological target: T1, human MCH receptor 1 (MCHR1) (Homo sapiens, UniProt Q99705); test: Human MCH receptor 1 (MCHR1) competitive inhibitory activity using binding assay; settings: test compound 0.1 μM; [125I]-MCH (4-19); human MCHR1-expressing CHO cellular membrane fraction; read-out: Binding inhibition rate % (0.1 μM)
T1 construct: expressed in transfected cells; host or cells: CHO cell clone 57 (described in WO01/82925); membrane fraction
Protocol: Determination of Human MCH Receptor 1 (MCHR1) Competitive Inhibitory Activity of Test Compound Using Binding Assay
1. Preparation of Membrane Fraction
In phosphate buffered saline (pH 7.4) supplemented with 5 mM EDTA (ethylenediaminetetraacetic acid) were respectively suspended human MCHR1-expressing CHO cells (1×10^8 cells) and centrifuged. Homogenate buffer (10 mL, 10 mM NaHCO3, 5 mM EDTA, pH 7.5, 0.5 mM PMSF (phenylmethylsulfonyl fluoride), 20 mg/L leupeptin, 4 mg/L E-64, 1 mg/L pepstatin A) was added to the pellets of the cells and, using Polytron Homogenizer, the mixture was homogenated. The supernatant obtained after centrifugation at 400×g for 10 min was further centrifuged at 100,000×g for 1 hr to give precipitate of the membrane fraction. The precipitate was suspended in 2 mL of assay buffer [20 mM Tris-HCl (pH 7.5), 5 mM EDTA, 0.5 mM PMSF, 20 mg/L leupeptin, 4 mg/L E-64, 1 mg/L pepstatin A]. The membrane fractions were suspended in assay buffer to a protein concentration of 2 mg/mL, and after dispensing, preserved at −80° C. and used upon thawing each time when in use.
The MCHR1 ligand binding inhibitory activity of the test compound was determined as follows.
The mixture was reacted with stirring at room temperature for 1 hr, and the plate was set on FilterMate Harvester (PerkinElmer). […] The glass filter plate was dried, MicroScint 0 (PerkinElmer) was added at 25 μL/well, and the resulting radioactivity was measured by TopCount liquid scintillation counter (PerkinElmer). The binding inhibition rate of the test compound was calculated by the following formula. Binding inhibition(%)=100−(radioactivity upon addition of test compound and hot MCH−radioactivity upon addition of cold MCH and hot MCH solution)/(radioactivity upon addition of DMSO solution and hot MCH−radioactivity upon addition of cold MCH and hot MCH solution)×100

[2] = system: male diet-induced obese F344/Jcl rats; test: Anorectic effect using male diet-induced obese F344/Jcl rats; format: in vivo, rat; settings: oral, 5 mg/mL suspension in 0.5% methylcellulose at 2 mL/kg, two administrations; food intake for 2 days vs control group
Protocol: Evaluation of Anorectic Effect Using Male Diet-Induced Obese F344/Jcl Rats
Male diet-induced obese F344/Jcl rats (41-52 weeks old) fed with a high-fat diet (D12451: Research Diets) from 5 weeks old were used. From before the start of experiment, the rats were singly housed, given a powder high-fat diet (D12451M: Research Diets), and habituated to oral administration with tap water. The food intake from the evening of the day before the start of experiment to the next morning was measured, and the rats were grouped based on both the food intake and the body weight of the previous day. In the evening of the day of the start of experiment and the next day, 0.5% methylcellulose solution was orally administered to the control group, and 0.5% methylcellulose suspension of the test compound (5 mg/mL) was orally administered to the compound administration group at 2 mL/kg (6 per group for both control group and compound administration group). The food intake for 2 days from the initial administration was measured. The food intake inhibition rate of each compound administration group to the control group was calculated.

hERG = hERG (Homo sapiens, UniProt Q12809); test: hERG activity measurement by IonWorks Quattro; format: cell-based; settings: 5 minutes exposure, hERG stably expressed in CHO cells (CYL3038)
Sequence of hERG (Q12809 whole entry): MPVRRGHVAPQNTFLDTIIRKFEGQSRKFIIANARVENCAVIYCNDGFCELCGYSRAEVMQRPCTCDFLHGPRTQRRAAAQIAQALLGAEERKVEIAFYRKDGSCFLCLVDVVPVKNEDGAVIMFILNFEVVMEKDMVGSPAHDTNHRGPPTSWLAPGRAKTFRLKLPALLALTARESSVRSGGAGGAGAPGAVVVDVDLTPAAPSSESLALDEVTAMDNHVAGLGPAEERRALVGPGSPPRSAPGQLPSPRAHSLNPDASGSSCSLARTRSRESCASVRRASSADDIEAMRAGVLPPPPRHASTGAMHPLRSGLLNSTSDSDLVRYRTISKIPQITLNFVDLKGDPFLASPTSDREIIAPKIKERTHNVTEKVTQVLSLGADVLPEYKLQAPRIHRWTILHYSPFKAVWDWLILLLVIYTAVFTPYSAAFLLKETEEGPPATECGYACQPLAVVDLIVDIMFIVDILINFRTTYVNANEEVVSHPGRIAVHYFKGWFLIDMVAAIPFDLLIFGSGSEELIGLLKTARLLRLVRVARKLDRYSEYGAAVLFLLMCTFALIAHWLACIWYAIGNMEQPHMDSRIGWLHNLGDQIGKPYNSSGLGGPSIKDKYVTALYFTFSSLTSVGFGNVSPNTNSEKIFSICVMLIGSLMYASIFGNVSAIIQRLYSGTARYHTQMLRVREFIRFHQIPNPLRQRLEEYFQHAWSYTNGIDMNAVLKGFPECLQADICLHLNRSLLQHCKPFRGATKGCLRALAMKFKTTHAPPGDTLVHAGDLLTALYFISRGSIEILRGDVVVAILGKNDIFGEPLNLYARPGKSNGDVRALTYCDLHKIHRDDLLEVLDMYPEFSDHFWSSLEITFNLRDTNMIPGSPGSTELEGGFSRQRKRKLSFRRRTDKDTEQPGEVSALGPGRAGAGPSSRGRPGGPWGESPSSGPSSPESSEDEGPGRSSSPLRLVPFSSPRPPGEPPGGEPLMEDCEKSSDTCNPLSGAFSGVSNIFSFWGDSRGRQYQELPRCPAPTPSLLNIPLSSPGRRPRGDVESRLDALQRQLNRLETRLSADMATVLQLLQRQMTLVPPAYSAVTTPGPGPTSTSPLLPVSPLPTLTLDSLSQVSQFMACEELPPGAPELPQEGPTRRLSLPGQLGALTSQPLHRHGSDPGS

human MCHR1 = biological target: T2, human MCHR1 (Homo sapiens, UniProt Q99705); test: MCH receptor 1 antagonistic activity using Ca2+ mobilization assay; format: cell-based; settings: test compound 0.1 μM; ligand MCH (4-19) 2 nM; human MCHR1-expressing CHO cells (clone #4); read-out: Inhibition rate % (0.1 μM)
T2 construct: expressed in transfected cells; host or cells: CHO dhfr- cells, clone #4
T2 sequence (Q99705 whole entry): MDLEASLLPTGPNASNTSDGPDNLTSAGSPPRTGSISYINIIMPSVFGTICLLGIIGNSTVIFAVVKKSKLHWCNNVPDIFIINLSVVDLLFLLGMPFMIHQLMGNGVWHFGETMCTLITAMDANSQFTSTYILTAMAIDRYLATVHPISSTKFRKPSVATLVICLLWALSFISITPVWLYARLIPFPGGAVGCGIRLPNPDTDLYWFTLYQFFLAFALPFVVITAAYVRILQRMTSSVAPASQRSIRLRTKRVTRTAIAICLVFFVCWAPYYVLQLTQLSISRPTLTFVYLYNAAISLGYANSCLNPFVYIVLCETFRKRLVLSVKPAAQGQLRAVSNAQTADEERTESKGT
Protocol: Measurement of MCH Receptor 1 Antagonistic Activity of Test Compound Using Ca^2+ Mobilization Assay
Using an expression vector plasmid introduced with human MCHR1 gene for expression in animal cells, human MCHR1 gene was introduced into CHO cells (CHO dhfr^−) by Lipofectamine LTX (Invitrogen). The cells were cultured in selection MEMα medium [445 mL of MEMα medium without nucleic acid and added with 5 mL of Penicillin-Streptomycin (Invitrogen) and 50 mL of dialyzed fetal bovine serum]. Colony 24 clones grown in the selection medium, which were human MCHR1 gene-expressing CHO cell candidates, were selected. […] An integrated dispensing function fluorometer (CellLux, PerkinElmer) was used for Ca^2+ mobilization assay. […] The medium was removed, and the cells were washed with phosphate buffered saline (PBS). A Ca^2+ indicator dye reagent (DOJINDO LABORATORIES, Ca screening no-wash kit Fluo4) was added at 100 μL/well, and the dye was allowed to penetrate into the cells for 30 min in an incubator at 5% CO2, 37° C. The plate was set on a plate reader. First, a test compound solution diluted with an assay buffer [10 mM HEPES (pH 7.4), 1× assay buffer containing 0.1% BSA (DOJINDO LABORATORIES, attached to Ca screening no-wash kit Fluo4)] or DMSO solution was added at 50 μL/well, and then ligand MCH (4-19) peptide (final concentration 2 nM) diluted with assay buffer or DMSO was added at 50 μL/well, during which changes in intracellular fluorescence were measured at 2 second intervals.

T1 sequence (Q99705 whole entry): as above

SMILES | inhibition at 0.1 µM [1] | inhibition at 0.1 µM (human MCHR1) | Food intake suppression rate (%) [2] | % hERG inhibition (10 μM) (hERG)
Cc1c2cc(-n3ccc(OCc4ccc(F)cc4)cc3=O)ccc2nn1C1CC1 [Example 6, 1-(2-cyclopropyl-3-methyl-2H-indazol-5-yl)-4-[(4-fluorobenzyl)oxy]pyridin-2(1H)-one] | 72% | 70% | 26.4% | 
Cc1c2cc(-n3ccc(OCc4csc(C(F)(F)F)c4)cc3=O)ccc2nn1C [Example 22, 1-(2,3-dimethyl-2H-indazol-5-yl)-4-{[5-(trifluoromethyl)thiophen-3-yl]methoxy}pyridin-2(1H)-one] | 51% | 69% | 50.7% | 
Cc1c2cc(-n3ccc(OCc4csc(C(F)(F)F)c4)cc3=O)ccc2nn1C1CC1 [Example 44, 1-(2-cyclopropyl-3-methyl-2H-indazol-5-yl)-4-{[5-(trifluoromethyl)thiophen-3-yl]methoxy}pyridin-2(1H)-one] | 77% | 55% | 30.6% | 
Cc1c2cc(-n3ccc(OCc4csc(C(F)(F)F)n4)cc3=O)ccc2nn1C1CC1 [Example 46, 1-(2-cyclopropyl-3-methyl-2H-indazol-5-yl)-4-{[2-(trifluoromethyl)-1,3-thiazol-4-yl]methoxy}pyridin-2(1H)-one] | 50% | 78% | 13.3% | 

Continued, in another order:

inhibition at 0.1 µM [1] | inhibition at 0.1 µM (human MCHR1) | SMILES | Food intake suppression rate (%) [2] | % hERG inhibition (10 μM) (hERG)
72% | 83% | Cc1c2cc(-n3ccc(OCc4ccc(Cl)cc4)cc3=O)ccc2nn1C [Example 1, 4-[(4-chlorobenzyl)oxy]-1-(2,3-dimethyl-2H-indazol-5-yl)pyridin-2(1H)-one] | 32.1% | 22.1%
57% | 84% | Cc1c2cc(-n3ccc(OCc4ccc(Br)cc4)cc3=O)ccc2nn1C [Example 25, 4-[(4-bromobenzyl)oxy]-1-(2,3-dimethyl-2H-indazol-5-yl)pyridin-2(1H)-one] | 59.8% | 
